The values that follow come from US20150086509A1, “COMPOSITIONS AND METHODS FOR TREATING CANCER USING INTERFERON AND MAPK PATHWAY INHIBITOR” (The Trustees of Columbia University in the City of New York, priority 2013, published 2015).

Entries after “also recorded” stand apart in the source; their conditions may differ.

Common to all, as to assay type: cell-based, human
Data set [1] concerns pSTAT1 (interferon-STAT1 pathway). Put plainly: Western blots of pSTAT1 levels. Conditions: low- and high-pSTAT1 cell lines. As to the method:
(§1) Control samples were collected untreated at time of treatment.
(§2) Samples for protein analysis were lysed using RIPA buffer. Protein concentration was assessed using BCA staining Samples were then normalized to a fixed concentration and mixed with a 5× glycerol/SDS/DTT loading buffer. Lysates were run on gradient (4-12%) Bis-Tris gels. After incubation with horseradish peroxidase-conjugated secondary antibodies, proteins were detected using chemiluminescence.
For orientation: Immunoblotting shows a protein as a band on a membrane.

Data set [2] has as its system caspase pathway (caspases 9, 7 and 3). Put plainly: Cleaved caspases by Western blot. Conditions: MEK inhibition. The protocol: as §1, §2
In data set [3] the test system is melanoma cell lines (low- and high-pSTAT1). Put plainly: Apoptosis assessed by TUNEL staining 72 h after treatment. As to conditions: PD325901 50 nM. The protocol: as §1
Apoptosis was assessed by TUNEL staining Cells were plated in 6-well plates at 200K cells/well. […] TUNEL was performed using Invitrogen BrdU TUNEL kit.

For data set [4], the system named is intrinsic apoptotic pathway (cytochrome C release). Put plainly: Cytochrome C release from the mitochondria. As to the method: Cytochrome C release was assessed on fresh unfrozen pellets using Sucrose/Mannitol buffer (Majewski et al., 2004). Full details in the supplementary material.
Protocol for Cytochrome C release is taken, as is, from Majewski et al 2004. Lysis buffer: 20 mM Hepes-KOH, [pH 7.5], 210 mM sucrose, and 70 mM mannitol; 1.5 mM MgCl2, 10 mM […], protease inhibitor, and 1 mg digitonin/1 mL lysis buffer.
Cells are trypsinized, collected and spun down in 4C. They are then washed with PBS and spun down again. It is critical that cell pellets will be lysed immediately without freezing. Cells are gently suspended, without vortexing, in lysis buffer. Roughly double the cell pellet volume is used. They are incubated in 25C for 3-10 min, depending all cell line. Spun down at 4C for 20 minutes at highest speed. Supernatant contains cytoplasmic fraction.

Data set [5] relates to Ma1Me3M, a BRAF-V600E cell line. Put plainly: Comparison of BRAF and MEK inhibition, transcriptional response (Illumina HumanHT-12 microarrays). As to the method: We assessed expression fold change at 1 hour, 2, 4, and 8 hours following treatment using Illumina HumanHT-12 microarrays.
Illumina's probe pvalues were used to filter out probes. Probes with p-value>0.05 in more than half of the samples were removed. Then microarrays were normalized according to their 75% percentile values. The 2 control array were averaged, and treated samples were compared to the averaged control to assess fold change.

Data set [6] has as its system high pSTAT1 cell line. Put plainly: Cytotoxicity of IFN by SubG1 percentage. As to conditions: 48 hours after treatment. As to the method: The cytotoxicity of IFN was assessed in high pSTAT1 cell line, 48 hours after treatment using SubG1 percentage. […] Cells plated in 6 well plates, 200K cells/well, in 2 mL of growth media. […] 50K cells per well were plated in 6-well plates with 2 mL of media and treated 24 hours later. Cells were counted every 24 hours up to 72 hours. C. […] Cells were plated in 6 well plates, 200K cells/well with 2 mL media.

Take `O=C(NOC[C@H](O)CO)c1ccc(F)c(F)c1Nc1ccc(I)cc1F` [PD325901]: the “pSTAT1 levels after treatment” value in data set [1] is “increase in pSTAT1 levels”. Besides, the “cleavage/activation of caspase 7 and 9” value in data set [2] (high-pSTAT1 cell lines) was “not cleaved”; in data set [2] (low pSTAT1 cell lines) it was “cleaved and activated”. Moreover, the “cytotoxic effect of MEK inhibition alone (TUNEL)” value was “only mild response” in data set [3] (high-pSTAT1 cell lines); “mostly resistant” in data set [3] (high-pSTAT1 cell lines, listed as MEK inhibition); “sensitive” in data set [3] (low-pSTAT1 cell lines). The “time of cytochrome C release after treatment” value in data set [4] (MEKi) was “approx. 36 hours”. Further, the “cytochrome C release” value in data set [4] (MEKi alone, all cell lines) is given as “activates the intrinsic apoptotic pathway by cytochrome C release”.
In the case of `CCCS(=O)(=O)Nc1ccc(F)c(C(=O)c2c[nH]c3ncc(Cl)cc23)c1F` [PLX4720], in data set [5] (2 uM PLX4720 vs 50 nM PD325901, BRAF-V600E cell line), the “transcriptional response compared with the MEK inhibitor PD325901” value was “almost identical transcriptional response”. Further, the “difference in gene expression fold change between MEKi and BRAFi treatments” value in data set [5] (Ma1Me3M, all time points (1, 2, 4, 8 hours)) is listed as ≤ 0.5 fold (on a log 2 scale).
With IFNα, in data set [6], the “cytotoxic / apoptotic effect of IFN (SubG1 percentage)” value is listed as “weaker cytotoxic effect than IFNβ; also recorded: dose-dependent effects”.
